Source: paper PMC11189555, “Aryl amino acetamides prevent Plasmodium falciparum ring development via targeting the lipid-transfer protein PfSTART1” (Nature Communications, 2024)

Experiments:
VPS51 (Q8I2A9) = assay: Solvent-PISA (solvent proteome profiling, DIA-MS); assay type: binding, Plasmodium falciparum; conditions: WEHI991_vs_DMSO, gradient G1, VPS51
LSG1 (Q8ILF2) = assay: Solvent-PISA (solvent proteome profiling, DIA-MS); assay type: binding, Plasmodium falciparum; conditions: WEHI991_vs_DMSO, gradient G1, LSG1
RECQ1 (Q8I2W7) = assay: Solvent-PISA (solvent proteome profiling, DIA-MS); assay type: binding, Plasmodium falciparum; conditions: WEHI991_vs_DMSO, gradient G1, RECQ1
Hyp1-Nluc parasites = assay: Egress, invasion & recovery assay (Nluc bioluminescence, smears); assay type: cell-based, Plasmodium falciparum; conditions: schizonts treated 4 h: M-833 2 µM, W-991 60 nM, ML10 30 nM, E64 10 µM, heparin 100 µg/mL; then washed off
Description: To measure egress, invasion, and follow-up recovery in the presence of different compounds, we adapted the method developed in[11], using Hyp1-Nluc parasites. A full description is in the Supplementary Information. […]
and compound 4. Note that M-833 was first purchased from MolPort (MolPort -002-267-916) then made in-house at WEHI: the differences observed in EC50s across experiments are attributed to the different batches of M -833. […]
Egress, invasion & recovery assay. To measure egress, invasion and follow up recovery in the presence of different compounds, we adapted the method developed in6, using Hyp1-Nluc parasites7. These parasites episomally express the exported PEXEL protein Hyp1 (PF3D7_0113300) tagged with a NanoLuc luciferase (NLuc) and were selected with 2.5 nM WR99210 (Jacobus). Highly synchronised schizonts were obtained using ML10 (LifeArc) and sorbitol synchronisation, and Percoll-purified (the culture was gently layered over 67% Percoll (Cytiva) in RPMI, and centrifuged for 15 min at 1500 g and the schizont layer was collected and washed). In a 96-well plate, […]
cultures were set up in 4 replicates (3 replicates for the Nluc readout, and one replicate for Giemsa smears) with 1-2% parasitemia, 2% haematocrit, with the following […]
100 μg/ml heparin (Sigma) and 10 μM E64 (Sigma). The schizonts were allowed to egress and invade for 4 h at 37°C. A “background” plate without treatment was left in the fridge during this time. After 4 h, cultures were sorbitol -treated to eliminate schizonts that have not egressed. Smears were made every day for the following 3 days, and 5 μL of the resuspended cultures were taken to measure Nluc activity (to assess parasite’s presence). To measure Nluc activity, 5 μL culture were added to 45 μL NanoGlo reagent (1x Promega lysis buffer and NanoGlo reagent; Promega). The average luminescence of the background cultures was subtracted to the average luminescence of each sample. […]
The viable parasite value was then expressed in log units and parasite reduction ratio was calculated as a decrease in […]

Row | Compound | Differential abundance (VPS51 (Q8I2A9)) | Differential abundance (LSG1 (Q8ILF2)) | Differential abundance (RECQ1 (Q8I2W7)) | parasite growth (Nluc bioluminescence) followed 72 h after 4 h treatment (Hyp1-Nluc parasites)
1 | CC(C)(Nc1ccc(Cl)c(S(=O)(=O)N2CCOCC2)c1)C(=O)Nc1ccc(F)c(Cl)c1 [WEHI991] | 0.7605 | 0.5417 | 0.6685 | 
2 | heparin [reference compound] |  |  |  | virtually no recovery after three days
